Experimental findings from US6369261B1, “Compounds having activity as inhibitors of cytochrome P450RAI” (Allergan Sales, Inc., priority 2000, dated 2002) are described below.

Bounds are passed on as bounds.

In data set [1] the test system is SKH1-hrBR or hairless mouse. Put plainly: topical skin irritation test in hairless mice. It counts as in vivo. Particulars: topical in acetone, once daily days 1 through 5, mean ±SD, range 0-21. An excerpt:
Mice were housed individually throughout the dosing period.
Doses are disclosed as nmol/25 g.
The grading scale used is as follows:
Values can range from 0-9.
Values can range from 0-8.

The target in a further data set is T1, RARβ (Homo sapiens, UniProt P10826).
T1 sequence (P10826 1-455): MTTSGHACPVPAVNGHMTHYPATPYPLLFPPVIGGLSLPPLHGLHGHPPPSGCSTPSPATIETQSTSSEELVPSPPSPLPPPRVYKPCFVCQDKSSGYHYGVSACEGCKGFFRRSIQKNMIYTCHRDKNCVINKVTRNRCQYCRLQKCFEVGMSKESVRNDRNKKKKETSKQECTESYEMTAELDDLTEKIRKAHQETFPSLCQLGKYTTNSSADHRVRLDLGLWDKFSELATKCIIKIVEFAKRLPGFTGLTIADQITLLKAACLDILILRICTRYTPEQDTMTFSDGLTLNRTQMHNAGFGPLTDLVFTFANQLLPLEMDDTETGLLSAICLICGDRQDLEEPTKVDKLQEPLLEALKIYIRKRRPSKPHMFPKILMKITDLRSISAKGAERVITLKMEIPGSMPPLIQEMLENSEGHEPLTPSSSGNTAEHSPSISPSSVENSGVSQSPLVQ
Put plainly: ligand binding assay. Particulars: last line of the stacked cell, read-out: RAR Kd β. The text has this: (§1) Assays described below measure the ability of a compound to bind to, and/or activate various retinoid receptor subtypes. When in these assays a compound binds to a given receptor subtype and activates the transcription of a reporter gene through that subtype, then the compound is considered an agonist of that receptor subtype. […] In the below described assays the ability of the compounds to bind to RARα, RARβ, RARγ, RXRα, RXRβ and RXRγ receptors, and the ability or inability of the compounds to activate transcription of a reporter gene through these receptor subtypes can be tested.
(§2) The results obtained in this assay are expressed in EC50 numbers, as they are also in the chimeric receptor transactivation assay. The results of ligand binding assay are expressed in Kd numbers.

For the next data set, the target named is T2, RARγ (Homo sapiens, UniProt P13631).
T2 sequence (P13631 1-454): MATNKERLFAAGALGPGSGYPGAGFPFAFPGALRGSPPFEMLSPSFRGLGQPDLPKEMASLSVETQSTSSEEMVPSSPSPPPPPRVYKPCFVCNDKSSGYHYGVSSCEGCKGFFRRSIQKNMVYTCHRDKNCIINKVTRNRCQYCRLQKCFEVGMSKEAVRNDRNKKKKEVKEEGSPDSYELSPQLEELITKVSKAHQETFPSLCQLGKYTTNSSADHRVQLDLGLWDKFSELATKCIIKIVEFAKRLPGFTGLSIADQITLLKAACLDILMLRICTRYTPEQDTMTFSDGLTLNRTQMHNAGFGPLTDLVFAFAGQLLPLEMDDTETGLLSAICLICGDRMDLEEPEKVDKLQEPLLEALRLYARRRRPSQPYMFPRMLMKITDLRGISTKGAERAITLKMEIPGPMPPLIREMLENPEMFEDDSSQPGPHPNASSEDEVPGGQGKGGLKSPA
The experiment in a line: ligand binding assay. The conditions noted are these: last line of the stacked cell, read-out: RAR Kd γ.
Source text: as §1, §2

For `CC1(C)CCC(=O)c2ccc(C#Cc3ccc(CC(=O)O)cc3)cc21` [Compound 5, 4-[(8,8-Dimethyl-5-oxo-5,6,7,8-tetrahydro-naphthalene-2-yl-ethynyl)-phenyl]-acetic acid], the “Cutaneous Toxicity Score (Blackjack Score)” value (“Cutaneous Toxicity Score” below) in data set [1] (100 nmole (nmol/25 g)) was determined as 0; in data set [1] (1000 nmole (nmol/25 g)), 6 ± 3.
On to `CN(C1CC1)C1CCC(C)(C)c2cc(C#Cc3ccc(CC(=O)O)cc3)ccc21` (stereo not shown) [Compound 8, 4-[(5-(Cyclopropyl-methyl-amino)-8,8-dimethyl-5,6,7,8-tetrahydro-naphthalene-2-yl-ethynyl)-phenyl]-acetic acid], for which the “Cutaneous Toxicity Score” value came out at 5 ± 2 in data set [1] (100 nmole (nmol/25 g)), 8 ± 3 in data set [1] (300 nmole (nmol/25 g)) and 12 ± 1 in data set [1] (1000 nmole (nmol/25 g)).
With `CC1(C)CCC(=O)c2ccc(C#Cc3ccc(CC(=O)O)c(F)c3)cc21` [Compound 15, [2-Fluoro-4-(8,8-dimethyl-5-oxo-5,6,7,8-tetrahydro-naphthalene-2-yl-ethynyl)phenyl]-acetic acid], the “Cutaneous Toxicity Score” value in data set [1] (100 nmole (nmol/25 g)) is listed as 1 ± 1; in data set [1] (1000 nmole (nmol/25 g)), 5 ± 2.
With `CN(C1CC1)C1CCC(C)(C)c2cc(C#Cc3ccc(CC(=O)O)c(F)c3)ccc21` (stereo not shown) [Compound 18, [4-(5-(Cyclopropyl-methyl-amino)-8,8-dimethyl-5,6,7,8-tetrahydro-naphthalene-2-yl-ethynyl)-2-fluoro-phenyl]-acetic acid], the results for the “Cutaneous Toxicity Score” value in data set [1] (100 nmole (nmol/25 g)), in data set [1] (300 nmole (nmol/25 g)) and in data set [1] (1000 nmole (nmol/25 g)) were 0 ± 0, 5 ± 2 and 10 ± 2, respectively.
Turning to `CC1(C)CN(C2CC2)Cc2ccc(C#Cc3ccc(CC(=O)O)c(F)c3)cc21` [Compound 22, [4-(2-Cyclopropyl-4,4-dimethyl-1,2,3,4-tetrahydro-isoquinolin-6-yl-ethynyl)-2-fluoro-phenyl]-acetic acid], the “Cutaneous Toxicity Score” value in data set [1] (100 nmole (nmol/25 g)) stood at 0 ± 0; in data set [1] (300 nmole (nmol/25 g)), 0 ± 0; in data set [1] (1000 nmole (nmol/25 g)), 1 ± 1.
Turning to `CC1(C)CC(C)(C)c2cc(C#Cc3ccc(CC(=O)O)cc3)cc(C3CC3)c2O1` [Compound 36, [4-(8-Cyclopropyl-2,2,4,4-tetramethyl-chroman-6-yl-ethynyl)phenyl]acetic acid], the “Cutaneous Toxicity Score” value in data set [1] (100 nmole (nmol/25 g)) was determined as 1 ± 1; in data set [1] (1000 nmole (nmol/25 g)), 11 ± 0.
Turning to `CC1(C)CC(C)(C)c2cc(C#Cc3ccc(CC(=O)O)c(F)c3)cc(C3CC3)c2O1` [Compound 38, [4-(8-Cyclopropyl-2,2,4,4-tetramethyl-chroman-6-yl-ethynyl)-2-fluorophenyl] acetic acid], the “Cutaneous Toxicity Score” value in data set [1] (100 nmole (nmol/25 g)) was determined as 1 ± 1; in data set [1] (1000 nmole (nmol/25 g)) it was 10 ± 1.
In general, Kd refers to a measure of binding affinity in units of concentration. Turning to `CC1(C)CC(C)(C)c2cc(C(=O)Oc3ccc(CC(=O)O)cc3)ccc2O1` [Compound 46, 2,2,4,4-Tetramethyl-chroman-6-carboxylic acid 4-(carboxymethyl)phenyl ester], the Kd on RARβ and on RARγ was greater than 10 µM throughout.
Turning to `CC1(C)CC2(CC2)Oc2c(C3CC3)cc(C#Cc3ccc(CC(=O)O)cc3)cc21` [Compound 48, Benzeneacetic acid, 4-[(8-cyclopropyl-3,4-dihydro-4,4-dimethylspiro[2H-1-benzopyran-2,1′-cyclopropane]-6-yl)ethynyl]-], the “Cutaneous Toxicity Score” value in data set [1] (100 nmole (nmol/25 g)) is reported as 1 ± 1; in data set [1] (300 nmole (nmol/25 g)), 3 ± 1; in data set [1] (1000 nmole (nmol/25 g)) it was 7 ± 2.
`CC1(C)CC2(CC2)Oc2c(C3CC3)cc(C#Cc3ccc(CC(=O)O)c(F)c3)cc21` [Compound 50]: the “Cutaneous Toxicity Score” value is listed as 1 ± 0 in data set [1] (100 nmole (nmol/25 g)), 3 ± 2 in data set [1] (300 nmole (nmol/25 g)) and 8 ± 2 in data set [1] (1000 nmole (nmol/25 g)).
As to `CC1(C)CC2(CC2)Oc2c(C3CC3)cc(C(=O)Oc3ccc(CC(=O)O)cc3)cc21` [Compound 58, Spiro[2H-1-benzopyran-2,1′-cyclopropane]-6-carboxylic acid, 8-cyclopropyl-3,4-dihydro-4,4-dimethyl-, 4-(carboxymethyl)phenyl ester], the “Cutaneous Toxicity Score” value in data set [1] (100 nmole (nmol/25 g)), in data set [1] (300 nmole (nmol/25 g)) and in data set [1] (1000 nmole (nmol/25 g)) was 0 ± 0 each time.
Regarding `CCCN(CCC)C1(c2ccc(C#Cc3ccc(C(=O)O)cc3)cc2)CC1` [Compound 110, 4-[4-(1-Dipropylamino-cyclopropyl)-phenylethynyl]-benzoic acid], the dissociation constant (Kd) on RARγ is greater than 10 µM.
On to `O=C(O)c1ccc(C#Cc2ccc(C3(N(Cc4ccccc4)Cc4ccccc4)CC3)cc2)cc1` [Compound 114, 4-[4-(1-Dibenzylamino-cyclopropyl)-phenylethynyl]-benzoic acid], for which the Kd at RARβ is greater than 10 µM.
Still for that read-out and setting: the result for `Cc1cc(C#Cc2ccc(CC(=O)O)cc2)ccc1Cn1ccnc1` [Compound 121, [4-(4-Imidazol-1-yl-methyl-3-methyl-phenylethynyl)-phenyl]-acetic acid] reads greater than 100 µM.
Take `CCN(Cc1ccc(C#Cc2ccc(CC(=O)O)cc2)cc1C)C1CC1` [Compound 131, (4-{4-[(Cyclopropyl-ethyl-amino)-methyl]-3-methyl-phenylethynyl}-phenyl)-acetic acid]: the “Cutaneous Toxicity Score” value was determined as 1 ± 1 in data set [1] (100 nmole (nmol/25 g)), 0 ± 1 in data set [1] (300 nmole (nmol/25 g)) and 1 ± 1 in data set [1] (1000 nmole (nmol/25 g)).
Consider `CC1(C)CCC(n2ccnc2)c2ccc(C#Cc3ccc(CC(=O)O)cc3)cc21` (stereo not shown) [Compound 137, [4-(5-Imidazol-1-yl-8,8-dimethyl-5,6,7,8-tetrahydro-naphthalen-2-yl-ethynyl)-phenyl]-acetic acid], for which the “Cutaneous Toxicity Score” value was found to be 1 ± 1 in data set [1] (100 nmole (nmol/25 g)), 1 ± 1 in data set [1] (300 nmole (nmol/25 g)) and 5 ± 2 in data set [1] (1000 nmole (nmol/25 g)).
